From PubChem BioAssay (NCI) come the findings set out here.

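Growth conditions: 96-well plates. Treatment: test compound, 48 hours, 5 concentrations. Analysis: linear interpolation between bracketing concentrations; unreached endpoints set to highest concentration. GI50: concentration for 50% inhibition of growth. At the TGI there is no net growth.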 Some results are limits rather than exact numbers.

Common to all, as to assay: NCI tumour cell line growth inhibition, 48 h
Assay [1] concerns HCT-15 colon.
Assay [2] relates to SN12C renal.
The test system of assay [3] is M14 melanoma.
Assay [4] deals with HT29 colon.
Assay [5] has as its system DU-145 prostate.
Assay [6] deals with SK-MEL-5 melanoma.
Assay [7] deals with SNB-19 CNS.
Assay [8] concerns NCI-H23 lung.
The subject of assay [9] is SF-268 CNS.
Assay [10] concerns UACC-62 melanoma.

`CCCC(=O)O`: the TGI was above 18700 µM in assay [1]; above 18700 µM in assay [2]; above 18700 µM in assay [3]; above 18700 µM in assay [4]; 13200 µM in assay [5]; 6100 µM in [6]. Also, the TGI in assay [7] is above 18700 µM; in [8], above 18700 µM; in assay [9] it was above 18700 µM; in assay [10] it was 4930 µM. The GI50 in assay [6] is 2410 µM.
`COc1ccc2oc(=N)c(C(=O)Nc3cccc4ccccc34)cc2c1`: the TGI in [1], in [2], in assay [3], in assay [4], in assay [5] and in assay [6] was above 100 µM each time. In addition, the TGI in assay [7] was 48 µM; in [8], above 100 µM; in assay [9], above 100 µM; in assay [10], 17.1 µM.
As to `CCOC(=O)c1cccc(NC(=O)CCl)c1`, the TGI in assay [1] was 12.4 µM; in [2] it was 4.6 µM; in assay [3], 24.9 µM; in assay [4], 14.1 µM; in [5], 22.7 µM; in [6] it was 3.69 µM. Besides, the TGI in assay [7] is above 92.8 µM; in assay [8], 13.1 µM; in [9], 5.69 µM; in [10], 6.85 µM.
Turning to `COc1c2cc([N+](=O)[O-])cc1CNC(=O)CN1CCOCCOCCN(CCOCCOCC1)CC(=O)NC2`, the TGI in assay [1], in assay [2], in [3], in assay [4], in assay [5] and in assay [6] was above 100 µM throughout. In addition, the TGI in [7], in assay [8], in [9] and in assay [10] was above 100 µM throughout.
For the molecule `CCOC(=O)c1cn(-c2ccccc2)c(=S)n2c1nc1ccccc12`, the TGI in [1] was above 100 µM; in assay [2], above 100 µM; in assay [3], above 100 µM; in assay [4], above 90.8 µM; in [5], above 100 µM; in assay [6], above 89.6 µM. In addition, the TGI is above 100 µM in assay [7], above 100 µM in assay [8], 94.9 µM in assay [9] and above 100 µM in assay [10].
In the case of `O=C(CSCC(=O)N/N=C/c1cc(I)cc(I)c1O)N/N=C/c1cc(I)cc(I)c1O`, the TGI in [1] was above 100 µM; in assay [2], above 100 µM; in assay [3], 43.6 µM; in assay [4] it was above 100 µM; in [5], above 100 µM; in assay [6] it was 24.8 µM. Also, the TGI in assay [7] came out at 36.6 µM; in assay [8] it was 25.3 µM; in assay [9] it was 22.6 µM; in [10], 31.9 µM.
As to `C=C(C)C(=O)CC[C@@H](C)[C@H]1[C@@H](OC2OC(CO)C(O)C(O)C2O)C[C@@]2(C)[C@@H]3C[C@H](O)C4C(C)(C)[C@@H](OC5OC(CO)C(O)C(O)C5O)CC[C@@]45C[C@@]35CC[C@]12C` (stereo partly specified), the TGI in [1], in assay [2], in assay [3], in [4], in assay [5] and in assay [6] was above 100 µM throughout. Further, the TGI in [7], in [8], in [9] and in assay [10] was above 100 µM in each case.
For the molecule `Cc1ccc(S(=O)(=O)c2scc(-c3ccccc3)c2C)cc1`, the TGI in [1], in [2], in assay [3], in [4], in assay [5] and in assay [6] was above 100 µM throughout. The TGI in [7], in [8], in [9] and in assay [10] was above 100 µM each time.
For the molecule `C1=C\SS/C=C\SS/C=C\SS/C=C\SS/1`, the TGI was 55.8 µM in [1]; above 100 µM in assay [2]; above 100 µM in [3]; above 100 µM in assay [4]; above 100 µM in assay [5]; above 100 µM in assay [6]. For the same molecule, the TGI in assay [7], in [8], in assay [9] and in [10] was above 100 µM throughout.
For `O=C1C=CC2CCC1C2` (stereo unspecified), the TGI in assay [1], in [2], in [3], in assay [4], in assay [5] and in [6] was above 100 µM throughout. Also, the TGI in assay [7] was 96.3 µM; in [8] it was above 100 µM; in [9], 58.6 µM; in [10], above 100 µM.
With `Clc1ccc2c(SCC3CO3)c3ccccc3nc2c1` (stereo unspecified), the TGI in assay [1] was determined as 3.34 µM; in assay [2] it was 7.35 µM; in assay [3] it was 3.34 µM; in assay [4], 3.23 µM; in assay [5] it was 2.95 µM; in assay [6], 9.07 µM. Besides, the TGI in assay [7] is 15.3 µM; in assay [8], above 100 µM; in assay [9], above 100 µM; in assay [10], above 100 µM.
As for `CCOc1cc2c(cc1O)/C(=N\N)C[C@@H]1[C@@H]2CC[C@]2(C)[C@@H](O)CC[C@@H]12`, the TGI in assay [1] was 16.8 µM; in assay [2] it was above 42.4 µM; in [3], above 41.7 µM; in assay [4] it was 30.8 µM; in [5] it was above 66.8 µM; in assay [6] it was 28 µM. Besides, the TGI was above 100 µM in assay [7], 92.1 µM in assay [8], above 44.9 µM in assay [9] and 41.9 µM in assay [10].
For the molecule `CC[C@@]1(O)C(=O)OCc2c1cc1n(c2=O)Cc2c-1nc1ccccc1c2/C=N\NC(=O)C(N)CC(C)C` (stereo partly specified), the TGI in assay [1] was above 36.2 µM; in assay [2], 1.61 µM; in assay [3], 0.648 µM; in assay [4], above 100 µM; in [5] it was above 100 µM; in assay [6], 0.0807 µM. Moreover, the TGI is above 100 µM in [7], 0.112 µM in assay [8], 3.68 µM in [9] and 0.0748 µM in assay [10].
Turning to `COc1cc(/C=C/C(=O)OCC23CC[C@@]4(C(=O)O)CCC(C)[C@H](C)C4C2=CCC2[C@@]4(C)CC[C@H](O)C(C)(C)C4CC[C@]23C)ccc1O` (stereo partly specified), the TGI in assay [1] was found to be 56.3 µM; in assay [2], 67.8 µM; in assay [3], 49.5 µM; in [4], 42 µM; in [5] it was 23.2 µM; in assay [6], 32.9 µM. Further, the TGI in assay [7] is above 100 µM; in assay [8], 15.6 µM; in assay [9], 33.3 µM; in [10] it was 41.9 µM.
`CN1C/C(=C\c2cccs2)C2=NC(=S)NC(c3cccs3)C2C1` (stereo unspecified): the TGI in assay [1], in [2], in assay [3], in assay [4], in [5] and in assay [6] was above 100 µM throughout. Also, the TGI in assay [7], in assay [8], in [9] and in assay [10] was above 100 µM each time.
With `c1ccc(C2=NC3(CCCCC3)N(c3nc4ccccc4s3)N2)nc1`, the TGI in assay [1] is above 100 µM; in assay [2] it was 69.9 µM; in assay [3] it was 59.2 µM; in [4], 58 µM; in assay [5], above 100 µM; in [6], 40.6 µM. For the same molecule, the TGI is above 100 µM in assay [7], 84.8 µM in assay [8], above 100 µM in assay [9] and above 100 µM in [10].
In the case of `Cc1ccc(C2CC(=O)CC(c3ccc(C)cc3)C23C(=O)NC(=O)NC3=O)cc1` (stereo unspecified), the TGI in assay [1], in assay [2], in [3], in assay [4], in assay [5] and in assay [6] was above 100 µM throughout. Moreover, the TGI in assay [7], in [8], in [9] and in [10] was above 100 µM in each case.
